Laboratory results from patent US20070128217A1 (priority 2003, published 2007).

Experiments:
[1] = system: antibodies in sera from SARS patients (sera 1a, 1b, 2, 6, 37, 62, London, SARS-yellow, SARS-green); type: binding, human; design: Binding of serum 6 to linear peptides of protein X1 of SARS-CoV Urbani / Binding of serum 37 to linear peptides of protein X1 of SARS-CoV Urbani / Binding of serum 6 to looped/cyclic peptide (PEPSCAN-ELISA) / Binding of serum 37 to looped/cyclic peptide (PEPSCAN-ELISA) / Binding of serum 37 to looped/cyclic peptides of protein X1 of SARS-CoV Urbani / Binding of serum 6 to linear peptides of protein X2 / Binding of serum 37 to linear peptides of protein X2 / Binding of serum 37 to looped/cyclic peptides of protein X2 of SARS-CoV Urbani / Binding of serum 6 to linear peptides of protein M of SARS-CoV Urbani / Binding of serum 37 to linear peptides of protein M of SARS-CoV Urbani / Binding of serum 6 to looped/cyclic peptides of protein M of SARS-CoV Urbani / Binding of serum 37 to looped/cyclic peptides of protein M of SARS-CoV Urbani / Binding of serum 6 to linear peptides of protein X3 of SARS-CoV Urbani / Binding of serum 37 to linear peptides of protein X3 of SARS-CoV Urbani / Binding of serum 37 to looped/cyclic peptides of protein X3 of SARS-CoV Urbani / Binding of serum 6 to linear peptides of protein X4 of SARS-CoV Urbani / Binding of serum 37 to linear peptides of protein X4 of SARS-CoV Urbani / Binding of serum 37 to looped/cyclic peptides of protein X4 of SARS-CoV Urbani / Binding of serum 6 to linear peptides of protein X5 of SARS-CoV Urbani / Binding of serum 37 to linear peptides of protein X5 of SARS-CoV Urbani / Binding of serum 37 to looped/cyclic peptides of protein X5 of SARS-CoV Urbani / Binding of serum 6 to linear peptides of protein N of SARS-CoV Urbani / Binding of serum 37 to linear peptides of protein N of SARS-CoV Urbani / Binding of serum 6 to linear peptide (PEPSCAN-ELISA) / Binding of serum 1a to looped/cyclic peptides of protein N of SARS-CoV Urbani / Binding of serum 1b to looped/cyclic peptides of protein N of SARS-CoV Urbani / Binding of serum 2 to looped/cyclic peptides of protein N of SARS-CoV Urbani / Binding of serum 6 to looped/cyclic peptides of protein N of SARS-CoV Urbani / Binding of serum 37 to looped/cyclic peptides of protein N of SARS-CoV Urbani / Binding of serum 62 to looped/cyclic peptides of protein N of SARS-CoV Urbani / Binding of serum London to looped/cyclic peptides of protein N of SARS-CoV Urbani / Binding of serum SARS-green to looped/cyclic peptides of protein N of SARS-CoV Urbani: unit not given here
[2] = system: control sera (pooled serum of ten healthy LUMC hospital workers; commercial negative donor pooled serum from the Dutch bloodbank); type: binding, human; design: Binding of Control serum LUMC to linear peptides / Binding of Control serum Blood-bank to linear peptides / Binding of Control serum LUMC to looped peptides / Binding of Control Serum Blood-Bank to Looped peptides / Binding of Control serum LUMC to linear peptides of the protein M of SARS-CoV Urbani / Binding of Control serum Blood-bank to linear peptides of the protein M of SARS-CoV Urbani / Binding of Control serum LUMC to looped peptides of the protein M of SARS-CoV Urbani / Binding of Control Serum Blood-Bank to Looped peptides of the protein M of SARS-CoV Urbani: unit not given here
[3] = system: rabbit serum obtained by immunizing a rabbit with the SARS-CoV strain Frankfurt 1; type: binding; design: Binding of a rabbit serum to linear peptides / Binding of a rabbit serum to looped peptides / Rabbit serum linear peptides / Rabbit serum looped peptides / Binding of a rabbit serum to linear peptides of protein N of SARS-CoV Urbani (Rabbit serum linear peptides) / Binding of a rabbit serum to looped/cyclic peptides of protein N of SARS-CoV Urbani (Rabbit serum looped peptides): unit not given here
[4] = system: recombinant human anti-SARS-CoV antibody 03-018; type: binding; design: Binding of antibody 03-018 to linear peptides of the N protein of SARS-CoV Urbani / Binding of antibody 03-018 to looped/cyclic peptides of the N protein of SARS-CoV Urbani: unit not given here

Sequence | Binding of serum 1a to linear peptide (PEPSCAN-ELISA) [1] | Binding of serum 1a to looped/cyclic peptides of protein N of SARS-CoV Urbani [1] | Binding of serum 1b to linear peptide (PEPSCAN-ELISA) [1] | Binding of serum 1b to looped/cyclic peptides of protein N of SARS-CoV Urbani [1] | Binding of serum 2 to linear peptide (PEPSCAN-ELISA) [1] | Binding of serum 2 to looped/cyclic peptides of protein N of SARS-CoV Urbani [1] | Binding of serum 6 to linear peptide (PEPSCAN-ELISA) [1] | Binding of serum 6 to looped/cyclic peptides of protein N of SARS-CoV Urbani [1] | Binding of serum 37 to linear peptide (PEPSCAN-ELISA) [1] | Binding of serum 37 to looped/cyclic peptides of protein N of SARS-CoV Urbani [1] | Binding of serum 62 to linear peptide (PEPSCAN-ELISA) [1] | Binding of serum 62 to looped/cyclic peptides of protein N of SARS-CoV Urbani [1] | Binding of serum London to linear peptide (PEPSCAN-ELISA) [1] | Binding of serum London to looped/cyclic peptides of protein N of SARS-CoV Urbani [1] | Binding of serum SARS-green to linear peptide (PEPSCAN-ELISA) [1] | Binding of serum SARS-green to looped/cyclic peptides of protein N of SARS-CoV Urbani [1] | Binding of serum SARS-yellow to linear peptide (PEPSCAN-ELISA) [1] | Binding of serum SARS-yellow to looped/cyclic peptides of protein N of SARS-CoV Urbani [1] | Binding of Control Serum Blood-Bank to Looped peptides [2] | Binding of Control serum Blood-bank to linear peptides [2] | other results
GFYAEGSRGGSQASS | 0.3 | 0.3 | 0.1 | 0.2 | 0.2 | 0.4 | 0.4 | 0.3 | 0.7 | 0.3 | 0.5 | 0.2 | 0.4 | 0.3 | 0.1 | 0.3 | 0.4 | 0.1 | 0.5 | 0.7 | Binding of Control serum LUMC to linear peptides [2]: 0.6; Binding of Control serum LUMC to looped peptides [2]: 0.5; Binding of a rabbit serum to linear peptides of protein N of SARS-CoV Urbani (Rabbit serum linear peptides) [3]: 0.1; Binding of a rabbit serum to looped/cyclic peptides of protein N of SARS-CoV Urbani (Rabbit serum looped peptides) [3]: 0.0; Binding of antibody 03-018 to linear peptides of the N protein of SARS-CoV Urbani [4]: 0.1; Binding of antibody 03-018 to looped/cyclic peptides of the N protein of SARS-CoV Urbani [4]: 0.2
GGETALALLLLDRLN | 0.2 | 0.4 | 0.1 | 0.3 | 0.2 | 0.5 | 0.2 | 0.2 | 0.6 | 0.7 | 0.6 | 0.7 | 0.4 | 0.5 | 0.4 | 0.3 | 0.5 | 0.7 | 0.8 | 0.7 | Binding of Control serum LUMC to linear peptides [2]: 0.6; Binding of Control serum LUMC to looped peptides [2]: 0.8; Binding of a rabbit serum to linear peptides of protein N of SARS-CoV Urbani (Rabbit serum linear peptides) [3]: 0.1; Binding of a rabbit serum to looped/cyclic peptides of protein N of SARS-CoV Urbani (Rabbit serum looped peptides) [3]: 0.6; Binding of antibody 03-018 to linear peptides of the N protein of SARS-CoV Urbani [4]: 0.1; Binding of antibody 03-018 to looped/cyclic peptides of the N protein of SARS-CoV Urbani [4]: 0.2
GGGETALALLLLDRL | 0.2 | 0.4 | 0.1 | 0.3 | 0.1 | 0.5 | 0.1 | 0.2 | 0.7 | 0.8 | 0.5 | 0.7 | 0.4 | 0.4 | 0.2 | 0.3 | 0.6 | 0.7 | 0.7 | 0.5 | Binding of Control serum LUMC to linear peptides [2]: 0.6; Binding of Control serum LUMC to looped peptides [2]: 0.8; Binding of a rabbit serum to linear peptides of protein N of SARS-CoV Urbani (Rabbit serum linear peptides) [3]: 0.1; Binding of a rabbit serum to looped/cyclic peptides of protein N of SARS-CoV Urbani (Rabbit serum looped peptides) [3]: 0.7; Binding of antibody 03-018 to linear peptides of the N protein of SARS-CoV Urbani [4]: 0.1; Binding of antibody 03-018 to looped/cyclic peptides of the N protein of SARS-CoV Urbani [4]: 0.2
GGSQASSRSSSRSRG | 0.3 | 0.3 | 0.1 | 0.2 | 0.3 | 0.4 | 0.4 | 0.4 | 0.7 | 0.5 | 0.7 | 0.4 | 0.5 | 0.4 | 0.7 | 0.0 | 0.9 | 0.3 | 0.6 | 0.7 | Binding of Control serum LUMC to linear peptides [2]: 0.8; Binding of Control serum LUMC to looped peptides [2]: 0.6; Binding of a rabbit serum to linear peptides of protein N of SARS-CoV Urbani (Rabbit serum linear peptides) [3]: 0.2; Binding of a rabbit serum to looped/cyclic peptides of protein N of SARS-CoV Urbani (Rabbit serum looped peptides) [3]: 0.5; Binding of antibody 03-018 to linear peptides of the N protein of SARS-CoV Urbani [4]: 0.1; Binding of antibody 03-018 to looped/cyclic peptides of the N protein of SARS-CoV Urbani [4]: 0.2
